Results on three compounds are retold here after patent US11439603B2, “Compositions for ameliorating, preventing or treating somnipathy including phloroglucinol as active ingredient and compositions for suppressing intolerance to or alleviating side effects of agonist at benzodiazepine binding site of GABA-A receptor including phloroglucinol as active ingredient” (KOREA FOOD RESEARCH INSTITUTE, priority 2017, dated 2022).

The test system of data set [1] is C57BL/6N mice. The experiment in a line: Sleep architecture (EEG) during long-term administration for 21 days and 2-day withdrawal. It counts as in vivo. How it is done: Experimental animals were prepared and their sleep architecture was analyzed in the same manner as in Experimental Example 1. As in the single administration in Experimental Example 1, the mice were allowed to recover for 7 days after surgery and acclimated for 4 days. Thereafter, baselines (BL) were measured on day 0 after acclimation and a sample was administered orally to each animal for 21 days. EEGs were recorded on days 1, 7, 14, and 21. EEGs were recorded and analyzed during the subsequent 2-day withdrawal. FIG. 8 is a flow diagram of an experiment for sleep architecture analysis during long-term administration.
EEGs were recorded for the mice on days 0, 1, 7, 14, and 21 during long-term administration of each sample for 3 weeks. The recorded EEGs were analyzed.

Data set [2] has as its system C57BL/6N mice. Nature of the data set: Sleep architecture analysis (EEG/EMG) after single administration. It counts as in vivo. As to conditions: for NREM sleep / REM sleep: EEG recorded for 2 h after oral administration. As for the experimental part: C57BL/6N mice (28-30 g, 12-week old male) were received from Koatech Co. Ltd. (Pyeongtaek, Gyeonggi-do, Korea) and acclimated to the vivarium for a period of one week before testing was conducted. The animals were housed at a temperature of 23±1° C., a humidity of 55±5%, and a light intensity of 3000 Lux under a 12 h light-dark cycle (light on from 07:00 to 19:00). The animals had ad libitum access to food and water. All animals were maintained in accordance with the guidelines for the Institutional Animal Care and Use Committee of the Korea Food Research Institute (KFRI-IACUC).
C57BL/6N mice were acclimated for a period of one week and received electrode implantation for electroencephalogram (EEG) and electromyogram (EMG) recordings. Each mouse was anesthetized with pentobarbital (50 mg/kg, i.p.) and its head was fixed in a stereotaxic instrument. After the subcutaneous connective tissue of the head was incised, an EEG/EMG headmount (Pinnacle Technology Inc., Lawrence, Kans., USA) was implanted for EEG and EMG recordings, fixed with dental cement, and closed with sutures. The surgical site was sterilized and an antibiotic was administered for 3 days to prevent possible inflammation after surgery. The animal was allowed to recover for 7 days. For adaptation to the recording conditions, 0.5% CMC-saline solution used as a control was administered orally from 4 days before measurement. Thereafter, the recording instrument was connected to induce acclimation of the animal to this experimental procedure.
After oral administration of a sample, the animal was stabilized for 5 min. Then, EEG and EMG were recorded using PAL-8200 series (Pinnacle Technology Inc., Lawrence, Kans., USA) for 24 h from 17:00. The sampling rate for EEG and EMG recordings was set to 200 Hz (epoch time: 10 s). The filtering range was set to 0.1-25 Hz for EEG data recording and 10-100 Hz for EMG data recording.
Sleep architecture analysis was conducted according to the fast Fourier transform (FFT) algorithm using the SleepSign program (Ver. 3.0, Kissei Comtec Inc., Matsumoto, Nagono, Japan).
The results were divided into three stages: Wake, REMS (rapid eye movement sleep, theta band: 6-10 Hz) and NREMS (non-rapid eye movement sleep, delta band: 0.5-4 Hz). Sleep latency was defined as the time required for NREM sleep with 10 s epoch to occur consecutively at least 12 times (Blanco-Centurion et al., 2006). The values in the 0.5-4 Hz range were averaged and the delta power during NREM sleep was expressed in percent relative to the control.
All animal experimental data were expressed as mean±standard deviation.

Data set [3] concerns GABAA-benzodiazepine receptor. The experiment in a line: Mechanism of action for sleep enhancement: flumazenil given 15 min before oral sample, EEG/EMG. It counts as in vivo, mice. As for the experimental part:
To investigate the mechanism of action for sleep enhancement, flumazenil, an antagonist of the GABAA-benzodiazepine receptor, was administered 15 min before oral administration of phloroglucinol and EEG and EMG were recorded by the same method as described in Experimental Example 1.
In this example, zolpidem was used as a positive control.

The conditions of data set [4]: administered alone at doses of 25 to 50 mg/kg; cited from earlier work.
For a further data set, the system named is GABAA-benzodiazepine. As to conditions: compared with other phlorotannins and diazepams; cited from earlier work.
Where [5] appears, read: oral once daily for 3 weeks, phloroglucinol 100 mg/kg, zolpidem 5 mg/kg.
Where [6] appears, read: oral once daily for 3 weeks, phloroglucinol 100 mg/kg, zolpidem 5 mg/kg, or both.

Regarding `Oc1cc(O)cc(O)c1` [phloroglucinol], in the data set on C57BL/6N mice [1] (setting [5]), the “NREM sleep duration compared to baseline (BL)” value was “increase”, the “intolerance on long-term administration” value is “no intolerance” and the “sleep latency compared to baseline (BL)” value is given as “significant reduction”. In addition, the “persistence of NREM sleep-enhancing effect from day 1 to day 21” value with C57BL/6N mice [1] (phloroglucinol 100 mg/kg alone or with zolpidem 5 mg/kg, once daily) is given as “lasted similarly from day 1 to day 21”. Moreover, in the data set with C57BL/6N mice [2], the NREM sleep entry is listed as “increased NREM sleep in a concentration-dependent manner” and the REM sleep entry is given as “without affecting REM sleep”. The “delta activity during NREM sleep” value in the data set on C57BL/6N mice [2] (oral, up to 150 mg/kg alone) was “no significant change”. In addition, the “time after administration for which NREM sleep was significantly increased” value with C57BL/6N mice [2] (single administration 150 mg/kg) amounted to 2 h. In the data set on C57BL/6N mice [2] (single oral administration, all concentrations (50, 100 and 150 mg/kg)), the “sleep latency compared to negative control (vehicle)” value is listed as “significantly reduced”. Besides, the “amount of NREM sleep” value in data set [3] (treated with flumazenil 15 min before oral administration) was “level similar to that of a negative control”. Also, the NREM sleep result in data set [3] (untreated with flumazenil) is recorded as “increased NREM sleep”. In data set [4], the sleep duration result is listed as “increasing sleep duration” and the sleep latency entry is listed as “effective in reducing sleep latency”. Besides, in the data set with GABAA-benzodiazepine, the IC50 result is recorded as “much lower” and the “binding affinity (Ki)” value is on record as “much lower”.

Regarding `Cc1ccc(-c2nc3ccc(C)cn3c2CC(=O)N(C)C)cc1` [zolpidem, N,N,6-trimethyl-2-p-tolylimidazo[1,2-a]pyridine-3-acetamide L-(+)-tartrate (2:1)], in the data set on C57BL/6N mice [1] (day 1, zolpidem 5 mg/kg alone or with phloroglucinol 100 mg/kg), the “time for which NREM sleep duration was significantly increased compared to baseline” value stood at 3 h. Further, the “time for which NREM sleep duration was significantly increased compared to baseline” value with C57BL/6N mice [1] (day 21, zolpidem 5 mg/kg alone) came out at 1 h. Moreover, in the data set with C57BL/6N mice [1] (days 1, 7, and 14 of long-term administration, zolpidem 5 mg/kg, p<0.01), the “delta activity compared to baseline” value is recorded as “significant reductions”. For the same compound, in the data set on C57BL/6N mice [1] (setting [5]), the “NREM sleep duration compared to baseline (BL)” value is reported as “significant increase”, the “intolerance on long-term administration” value is on record as “demonstrating intolerance” and the “sleep latency compared to baseline (BL)” value is recorded as “significant reduction”. In the data set with C57BL/6N mice [1] (setting [6]), the “NREM sleep duration with increasing administration period (third week / day 21 versus first day)” value is “significant difference” and the “sleep latency with increasing administration period (third week / days 7, 14, 21 versus first day)” value is reported as “significant difference”. In the data set with C57BL/6N mice [2] (5 mg/kg), the residual sedation result is given as “slight residual sedation”, the “time after administration for which NREM sleep was significantly increased” value stood at 3 h and the “time after administration for which vigilance was significantly reduced” value is given as “up to 9 h”. Moreover, in the data set on C57BL/6N mice [2] (10 mg/kg alone), the “NREM sleep at 14 h after administration (residual sedative effect)” value was “significantly increased” and the “time after administration for which the sleep-enhancing effect lasted” value worked out at 4 h. Besides, the “increase of NREM sleep duration” value in the data set on C57BL/6N mice [2] (10 mg/kg, 2 h after oral administration, p<0.01) is given as 74.6%. In the data set with C57BL/6N mice [2], the NREM sleep result is reported as “increased NREM sleep in a concentration-dependent manner” and the REM sleep result is reported as “without affecting REM sleep”. Further, the “delta activity in the range of 0.5-4 Hz during NREM sleep” value in the data set on C57BL/6N mice [2] (oral 5 mg/kg, p<0.01) is recorded as “significantly reduce”. In addition, the “delta activity in the range of 0.5-4 Hz during NREM sleep” value in the data set with C57BL/6N mice [2] (oral 10 mg/kg, p<0.01) is given as “significantly reduce”. In addition, the “reduction of sleep latency” value in the data set on C57BL/6N mice [2] (single administration of zolpidem 10 mg/kg) was approximately 44 min. Also, in the data set with C57BL/6N mice [2] (single administration, 5 and 10 mg/kg), the “sleep latency compared to negative control (vehicle)” value was “significantly reduced”. The “sleep-enhancing effect with flumazenil” value in data set [3] (flumazenil administered before sample, positive control) is on record as “completely blocked”.

As for `CN1C(=O)CN=C(c2ccccc2)c2cc(Cl)ccc21` [diazepam], in the data set with C57BL/6N mice [2] (5 mg/kg diazepam (data not shown)), the “delta activity in the range of 0.5-4 Hz” value is reported as “significantly reduced”.
